Results taken from patent publication US7629172B2, “Entrapped binding protein as biosensors” (Becton, Dickinson and Company, priority 2002, dated 2009).
Each block holds one molecule with its values, some of them ahead of it.

What was measured:
[1] = Binding constant (Kd) by titration of glucose into labeled protein solution
Procedure: (§1) Binding constants were determined by titration of increasing concentrations of glucose into a protein solution with mixing following each addition of glucose. Slit settings were the same as listed above. The Kd was determined from the following relationships as adapted from Pisarchick and Thompson (1990):
where F is fluorescence intensity, Finf is fluorescence at infinity, F0 is fluorescence at zero glucose, and x is the free concentration of glucose ([Glc]free) as determined by the relationship:
where [Glc]tot and [Prot]tot are the total concentrations of glucose and protein, respectively.

[2] = Change in fluorescence of reporter-labeled GGBP mutants in solution on glucose addition; format: biochemical; settings: GGBP-H6 NBD
Procedure: Labeled mutated maltose binding protein S337C MBP with fluorophore reporter probe NBD used herein in accordance with the procedure set forth by Cass, A. et al. (Anal. Chem. 1994, 66, 3840-3847). Fluorescence emission spectra of mutated, labeled protein was measured using an SLM Aminco fluorimeter (Ontario, Canada) with slit settings of 8 and 4 for excitation and settings of 5 and 5 on the MC250 emission monochromator to compare the ligand-binding performance of the entrapped fluorophore-labeled proteins in various matrixes to the performance of the same proteins in solution. The initial fluorescence emission intensity is defined as Io. The relative ratio of the emission intensity maxima in the presence of the protein's respective ligand (If) to the ligand's absence (Io) is defined as ΔF.
This example describes generically the labeling of binding protein with reporter probe. An aliquot of mutant GGBP containing cysteine (4.0 nmol) in PBS was treated with 2 mM dithiothreitol (5 μL, 10 nmol) for 30 min. A stock solution of N,N′-dimethyl-N-(iodoacetyl)-N′-(7-nitrobenz-2-oxa-1,3-diazol-4-yl)ethylenediamine (IANBD amide, 0.5 mg) was prepared in DMSO (100 μL, 11.9 mM) and 3.36 μL (40 nmol) was added to the protein. The reaction proceeded at room temperature for 4 h on a Dynal rotamix in the dark. The labeled protein was purified by gel filtration on a NAP-5 column (Amersham Pharmacia). The labeling rations were determined using an estimated extinction coefficient (50 mM^−1 cm^−1) for GGBP that was calculated in GeneWorks 2.45 (IntelliGenetics), ε478 (IANBD amide)=25 mM^−1cm^−1), and a measurement of O.D. for a standard solution of IANBD amide at 280 nm and 478 nm. The dye concentration in the protein was calculated as […]. The absorbance of protein at 280 nm was calculated as Aprot(280)=Atotal(280)−Adye(280), where Adye(280)=A478×(A280/A478)standard. The concentration of protein was then […].

[3] = ΔF of labeled GGBP entrapped in optimized GMSC sol-gel (96 well microplate); format: biochemical
Procedure: (§2) Entrapment Of Binding Proteins In GMSC Sol-Gels Containing Functionalized Silicone Additives (FSA) and Polymers. This example describes the addition of polymer and organic polyol additives to optimize the GMSC sol-gels for entrapping binding proteins to both maintain and enhance their spectral properties upon ligand binding. The binding proteins were labeled with a fluorophore (as described in example 3). The protein solutions were added during the final hydrolysis/gelling step described previously to produce final concentrations of 2-4 μM protein within the sol-gel. The polymer additives and FSA's were obtained from Sigma-Aldrich Chemicals (St. Louis, Mo.). Polymer additives were evaluated in amounts between 0 to about 30 wt. Functionalized silicone additives (FSA) were evaluated as additives to the GMSC sol-gels in amounts from 0 to about 0.6% mole ratio. Thus, rotary evaporation of the GMSC reagent to remove methanol from its storage solution was followed by reconstitution in water in a 1:1 ratio by weight. […] Fluorescence emission was measured with a Varian Cary Eclipse scanning fluorometer with microwell plate adapter (Varian Instruments, Victoria, Australia). Excitation was at 475 nm and emission recorded from 500 to 600 nm, typically monitoring emission maximum peak fluorescence. […]

[4] = Kd of labeled GGBP entrapped in optimized GMSC sol-gel; format: binding; settings: protein entrapped in optimized sol-gel formulation
Procedure: as §1
as §2, with “The polymer additives and FSA's were obtained from Sigma-Aldrich Chemicals (St. Louis, Mo.).” left out, “ratio.” for “ratio. Thus, rotary evaporation of the GMSC reagent to remove methanol from its storage solution was followed by reconstitution in water in a 1:1 ratio by weight.”

[5] = GGBP L238C/A213C in dialysis membrane on fiber optic, reversibility of signal; format: biochemical; settings: cycles between PBS buffer and 2 mM, 20 mM glucose; emission 521 nm; FIG. 4
Procedure: This example describes the immobilization of a biosensor of the instant invention into a dialysis membrane matrix and the ability of the matrix to provide reversible and continuous readings. Using a Varian Eclipse fluorimeter with a fiber optic attachment, GGBP L238C/A213C protein (2 μM in PBS buffer) entrapped within a dialysis membrane having a molecular cut-off of 3500 Daltons affixed to the distal end of the fiber. Solutions were prepared containing PBS buffer, 2 mM, and 20 mM glucose in PBS buffer. With the probe in PBS solution, readings were recorded at 0.02 seconds intervals of the emission wavelength 521 nm, followed by insertion of the fiber into the glucose solutions.

[6] = ΔF of H152 GGBP-H6 NBD entrapped in sol-gel matrixes vs solution; format: biochemical; settings: ratio If/Io, matrix containing H152 GGBP-H6 NBD
[7] = GGBP H152C entrapped in UV cross-linked SbQ-PVA hydrogel, glucose challenge; format: biochemical
Procedure: This example describes the entrapment of GGBP H152C in UV cross-linked hydrogel matrix and the effect of the matrix on the fluorescence change and binding affinity. In this experiment SbQ-PVA from Polysciences Inc. was added 100 ul of PBS buffer and mixed for one hour to mix in a rotary mixer. 80 ul of this solution was then mixed with 20 ul of labeled protein. Final protein concentration was spectroscopically determined to be 0.15 mg/ml. After mixing, aliquiots were dispensed into 96-well plates and dried in a chamber maintained at 20% humidity for 12 h followed by curing with UV light. Wells containing protein encapsulated in matrix were challenge with 2 ul of 10 mM glucose and compared to protein solution without matrix having equivalent protein loading.

[8] = GGBP-H6 NBD, solution, measured at 0.1 μM [dye], read-out: Solution Kd
[9] = from 0 to 1 mM Glc at 0.5 μM [NBD]
[10] = protein in solution, read-out: Kd (mM) [solution value]

Molecule: H152C, A213S: GGBP-H6 NBD double mutant
Δ F(%) [2, 9]: 100%
Kd [1, 8]: 160 µM

Molecule: S112C, L238S: GGBP-H6 NBD double mutant
Δ F(%) [2, 9]: 6%

Molecule: D14C: GGBP-H6 NBD mutant, cysteine substituted for aspartic acid at position 14
Δ F(%) [2, 9]: 1%

Molecule: K11C: GGBP-H6 NBD mutant, cysteine substituted for lysine at position 11
Δ F(%) [2, 9]: 10%

Molecule: K113C: GGBP-H6 NBD mutant, cysteine substituted for lysine at position 113
Δ F(%) [2, 9]: 15%

Molecule: D287C: GGBP-H6 NBD mutant, cysteine substituted for aspartic acid at position 287
Δ F(%) [2, 9]: 4%

Molecule: L238C: GGBP-H6 NBD mutant, cysteine substituted for leucine at position 238
Δ F(%) ([2]; measured from 0 to 100 mM Glc): +3%

Molecule: wild type: wild type E. coli galactose/glucose binding protein (GGBP-H6), intrinsic fluorescence [reference compound]
Kd [1, 8]: 0.2 µM

Molecule: E149C, L238S: GGBP-H6 NBD double mutant
Kd [1, 8]: 80 µM

Molecule: E149C, N256S: GGBP-H6 NBD double mutant
Δ F(%) [2, 9]: 1%

B1: E149C, M182C, A213C, L238S: GGBP-H6 NBD mutant with four amino acid substitutions (protein, UniProt P0AEE5 24-332, looked up, variant E149C M182C A213C L238S)
D-galactose/methyl-galactoside …: ADTRIGVTIYKYDDNFMSVVRKAIEQDAKAAPDVQLLMNDSQNDQSKQNDQIDVLLAKGVKALAINLVDPAAAGTVIEKARGQNVPVVFFNKEPSRKALDSYDKAYYVGTDSKESGIIQGDLIAKHWAANQGWDLNKDGQIQFVLLKGCPGHPDAEARTTYVIKELNDKGIKTEQLQLDTACWDTAQAKDKMDAWLSGPNANKIEVVIANNDCMAMGAVEALKAHNKSSIPVFGVDASPEALALVKSGALAGTVLNDANNQAKATFDLAKNLADGKGAADGTNWKIDNKVVRVPYVGVDKDNLAEFSKK
modifications: His6 tag, NBD fluorophore label
notes: GGBP-H6 NBD mutant with four amino acid substitutions
Δ F(%) [2, 9]: 200%

Further lines, with some results ahead:

Kd [1, 8]: 1000 µM
Molecule: E149C, A213R: GGBP-H6 NBD double mutant

Kd [1, 8]: 0.1 µM
Molecule: V19C: GGBP-H6 NBD mutant, cysteine substituted for valine at position 19

Kd [1, 8]: 1 µM
Molecule: Y107C: GGBP-H6 NBD mutant, cysteine substituted for tyrosine at position 107

Kd [1, 8]: 0.8 µM
Molecule: R292C: GGBP-H6 NBD mutant, cysteine substituted for arginine at position 292

Kd [1, 8]: 6000 µM
Kd [1, 10]: 6000 µM
Kd [4]: 2.2 mM
Molecule: A213C, L238C: GGBP-H6 NBD double mutant, cysteines at positions 213 and 238
Δ F(%) [2, 9]: 24%
Δ F(%) ([2]; measured from 0 to 100 mM Glc): 67%
ΔF (enhancement vs. solution) ([3]; sugar challenge 100 mM glucose): 2.36x
reversibility of signal [5]: return of initial signal

Kd [1, 10]: 70 µM
Kd [4]: 0.36 mM
Kd of the entrapped protein ([7]; SbQ-PVA UV cross-linked hydrogel): comparable to that obtained in solution
Molecule: H 152 C GGBP-NBD: glucose/galactose binding protein with cysteine at position 152, His6 tag, labeled with NBD
ΔF (10 mM Glucose) [6]: 1.53
ΔF (enhancement vs. solution) ([3]; sugar challenge 10 mM glucose): 2.93x
response to the analyte (fluorescence) vs solution ([7]; SbQ-PVA hydrogel, 10 mM glucose challenge, FIG. 3): equivalent to that obtained in solution

Kd [1, 8]: 35000 µM
Molecule: E149C, A213R, L238S: GGBP-H6 NBD triple mutant
Δ F(%) [2, 9]: 500%

Kd [1, 8]: 0.2 µM
Molecule: N43C: GGBP-H6 NBD mutant, cysteine substituted for asparagine at position 43
Δ F(%) [2, 9]: 40%

Kd [1, 8]: 0.2 µM
Molecule: E149C: GGBP-H6 NBD mutant, cysteine substituted for glutamic acid at position 149
Δ F(%) [2, 9]: 300%

Kd [1, 8]: 0.9 µM
Molecule: G74C: GGBP-H6 NBD mutant, cysteine substituted for glycine at position 74

Kd [1, 8]: 470 µM
Molecule: E149C, A213S, L238S: GGBP-H6 NBD triple mutant
Δ F(%) [2, 9]: 480%

Kd [1, 8]: 0.04 µM
Molecule: K137C: GGBP-H6 NBD mutant, cysteine substituted for lysine at position 137
